Laboratory results from ChEMBL document CHEMBL1152465, “Comparative evaluation of the inhibitory activities of a series of pyrimidinedione congeners that inhibit human immunodeficiency virus types 1 and 2” (Antimicrob Agents Chemother, 2008).
Activity calls are given as the source filed them.

Tests used:
[1] = test system: Human immunodeficiency virus 2; assay: Inhibition of HIV2 reverse transcriptase assessed as 32P-labeled GMP incorporation into nascent DNA strand at highest concentration
[2] = test system: Human immunodeficiency virus 1; assay: Antiviral activity against HIV1 infected in human CEM-SS cells assessed as inhibition of viral replication and virus-induced cytopathic effect by dose-response curve analysis; format: functional; settings: Human immunodeficiency virus 1, CEM-SS
[3] = test system: Human immunodeficiency virus 1; assay: Antiviral activity against HIV1 RF infected in human CEM-SS cells assessed as inhibition of virus-induced cytopathic effect by XTT assay; format: functional, organism-based; settings: Human immunodeficiency virus 1, RF
[4] = Cytotoxicity against human CEM-SS cells by XTT assay; format: cell-based; settings: read-out: TC50 (the source's name)
[5] = test system: Human immunodeficiency virus 2; assay: Antiviral activity against HIV2 ROD infected in human CEM-SS cells assessed as inhibition of virus-induced cytopathic effect by XTT assay; format: functional, organism-based, ISOLATE ROD; settings: Human immunodeficiency virus 2, ISOLATE ROD, CEM-SS; read-out: EC50
[6] = test system: Human immunodeficiency virus 2; assay: Antiviral activity against HIV2 assessed as inhibition of viral replication treated at time points after viral entry into host cells; format: functional, organism-based
[7] = Therapeutic index, ratio of TC50 human HeLa cells expressing CD4-LTR to EC50 for HIV1 entry inhibition in human HeLa cells expressing CD4-LTR; format: cell-based; settings: read-out: TI
[8] = Cytotoxicity against human HeLa cells expressing CD4-LTR by XTT assay; format: cell-based; settings: read-out: TC50 (the source's name)
[9] = biological target: Human immunodeficiency virus type 1 reverse transcriptase (Human immunodeficiency virus 1, UniProt Q72547); assay: Inhibition of wild type HIV1 reverse transcriptase assessed as 32P-labeled GMP incorporation into nascent DNA strand
[10] = test system: Human immunodeficiency virus 2; assay: Antiviral activity against HIV2 assessed as inhibition of viral single round replication at early time point; format: functional, organism-based
[11] = biological target: Human immunodeficiency virus type 1 reverse transcriptase (Human immunodeficiency virus 1, UniProt Q72547, K103N); assay: Inhibition of HIV1 reverse transcriptase K103N mutant assessed as 32P-labeled GMP incorporation into nascent DNA strand
HeLa = assay: Inhibition of HIV1 gp120/CD4 interaction assessed as inhibition of gp120 and gp41 coexpressing human HL2/3 cell fusion to CD4 expressing human HeLa cells treated for 2 hrs measured after 48 hrs by chemiluminescence assay; format: cell-based; settings: Human immunodeficiency virus 1
[12] = test system: Human immunodeficiency virus 1; assay: Antiviral activity against HIV1 infected in human HeLa cells expressing CD4-LTR assessed as inhibition of viral entry-related beta galactosidase expression treated for 2 hrs followed by drug wash out measured after 48 hrs by MAGI assay; format: functional, organism-based; settings: for EC50: Human immunodeficiency virus 1, HeLa
[13] = Therapeutic index, ratio of TC50 for human CEM-SS cells to EC50 for HIV2 ROD infected in human CEM-SS cells; format: cell-based; settings: CEM-SS cells, read-out: TI
[14] = test system: Simian immunodeficiency virus; assay: Antiviral activity against SIV MAC251 infected in human 174xCEM cells assessed as inhibition of virus-induced cytopathic effect; format: functional, organism-based
[15] = test system: Human immunodeficiency virus 2; assay: Inhibition of HIV2 reverse transcriptase
[16] = test system: Human immunodeficiency virus 2; assay: Antiviral activity against HIV2 infected in human CEM-SS cells assessed as inhibition of viral replication and virus-induced cytopathic effect by dose-response curve analysis; format: functional; settings: Human immunodeficiency virus 2, CEM-SS
[17] = Therapeutic index, ratio of TC50 for human CEM-SS cells to EC50 for HIV1 RF infected in human CEM-SS cells; format: cell-based; settings: read-out: TI
[18] = test system: Human immunodeficiency virus 1; assay: Antiviral activity against HIV1 infected in human HeLa cells expressing CD4-LTR assessed as inhibition of viral entry-related beta galactosidase expression at 0.5 uM followed by drug wash out and viral infection measured after 48 hrs by MAGI assay; format: functional, organism-based
[19] = test system: Human immunodeficiency virus 1; assay: Antiviral activity against HIV1 infected in human HeLa cells expressing CD4-LTR assessed as inhibition of viral entry-related beta galactosidase expression at 0.2 to 0.4 uM followed by drug wash out and viral infection measured after 48 hrs by MAGI assay; format: functional, organism-based
[20] = test system: Human immunodeficiency virus 1; assay: Antiviral activity against HIV1 infected in human HeLa cells expressing CD4-LTR assessed as inhibition of viral entry-related beta galactosidase expression at > 0.5 uM followed by drug wash out and viral infection measured after 48 hrs by MAGI assay; format: functional, organism-based
[21] = test system: Human immunodeficiency virus 1; assay: Antiviral activity against HIV1 infected in human HeLa cells expressing CD4-LTR assessed as inhibition of viral entry-related beta galactosidase expression at > 10 ug/ml followed by drug wash out and viral infection measured after 48 hrs by MAGI assay; format: functional, organism-based
[22] = test system: Human immunodeficiency virus 1; assay: Antiviral activity against HIV1 infected in human HeLa cells expressing CD4-LTR assessed as inhibition of viral entry-related beta galactosidase expression pretreated 2 hrs before viral infection measured after 48 hrs of infection by MAGI assay; format: functional, organism-based

Row | Structure (SMILES) | Activity [1] | EC99 [2] [µM] | EC50 [3] [µM] | CC50 [4] [µM] | EC50 [5] [µM] | Activity [6] | selectivity ratio [7] | CC50 [8] [µM] | IC50 [9] [µM] | Activity [10] | IC50 [11] [µM] | inhibition (HeLa) | EC50 [12] [µM] | selectivity ratio [13] | Activity [14] | Activity [15] | EC99 [16] [µM] | selectivity ratio [17] | further results
1 | CCc1c(Oc2cc(C)cc(C)c2)n(CC2CC2)c(=O)[nH]c1=O | inactive | 1 | 0.006 | 1300 | 0.6 | inactive | 202000 | 1280 | 0.016 | Active | 0.21 | inactive | 0.006 | > 2100 | inactive | inactive | 10 | 215000 | 
2 | Cc1cc(C)cc(C(=O)c2c(C(C)C)c(=O)[nH]c(=O)n2CC2CC=CC2)c1 | inactive | 1 | 0.0022 | 1100 | 15.5 | inactive | 2690 | 1120 | 0.651 | Active | 23 | inactive | 0.41 | > 75 | inactive | inactive | 100 | 491000 | 
3 | CCc1c(C(=O)c2cc(C)cc(C)c2)n(CC2CC=CC2)c(=O)[nH]c1=O | inactive | 1 | 0.002 | 1100 | 16 | inactive | 15700 | 1120 | 0.179 | Active | 2.6 | inactive | 0.07 | > 71 | inactive | inactive | 100 | 553000 | Activity [18]: inactive
4 | O=C1Nc2ccc(Cl)cc2[C@@](C#CC2CC2)(C(F)(F)F)O1 [EFAVIRENZ] |  |  |  |  |  |  |  |  |  |  |  |  |  |  |  |  |  |  | Activity [12]: 0.02 µM; Activity [19]: Active
5 | Cc1cc(C)cc(C(=O)c2c(C(C)C)c(=O)[nH]c(=O)n2CC2=CCCC2)c1 | inactive | 0.001 | 0.0001 | 16.7 | 0.1 | inactive | 2290 | 20.8 | 0.02 | Active | 1.6 | inactive | 0.009 | 122 | inactive | inactive | 1 | 523000 | 
6 | Cc1cn([C@H]2C[C@H](N=[N+]=[N-])[C@@H](CO)O2)c(=O)[nH]c1=O |  |  |  |  |  |  |  |  |  |  |  |  |  |  |  |  |  |  | Activity [20]: inactive
7 | Cc1cc(C)cc(C(=O)c2c(C(C)C)c(=O)[nH]c(=O)n2CC2CC2)c1 | inactive | 0.001 | 0.0005 | 1200 | 0.1 | inactive | 101000 | 1180 | 1.97 | Active | 2.7 | inactive | 0.012 | 13000 | inactive | inactive | 10 | 2.55e+06 | 
8 | CCc1c(C(=O)c2cc(C)cc(C)c2)n(CCC2C=CCC2)c(=O)[nH]c1=O (stereo unspecified) | inactive | 1 | 0.054 | 92 | 0.2 | inactive | 1310 | 92 | 0.075 | Active | 1.88 | inactive | 0.07 | 421 | inactive | inactive |  | 1680 | 
9 | COc1cc(-c2ccc(/N=N/c3ccc4c(S(=O)(=O)O)cc(S(=O)(=O)O)c(N)c4c3O)c(OC)c2)ccc1/N=N/c1ccc2c(S(=O)(=O)O)cc(S(=O)(=O)O)c(N)c2c1O |  |  |  |  |  |  |  |  |  |  |  |  |  |  |  |  |  |  | Activity [21]: inactive; Activity [12]: Active; Activity [22]: Active
10 | CCc1c(C(=O)c2cc(C)cc(C)c2)n(CC2=CCCC2)c(=O)[nH]c1=O | inactive | 1 | 0.0025 | 60.5 | 1.4 | inactive | 536 | 60.5 | 0.088 | Active | 1.93 | inactive | 0.11 | 42.6 | inactive | inactive |  | 23700 | 
